Reference: US4510140A, “Therapeutically effective ω-(4-(2-pyridyl)-piperazino)-alkanoylanilides” (priority 1981, dated 1985)
Read-outs that look alike come from different tables or passages of the source.

How the values were obtained:
[1] = LD50 determined in the mouse (C. S. Weil method); parameters: unit not given here; details: in vivo
Description: Accordingly, the present invention also features pharmaceutical compositions comprising a pharmaceutically effective amount of a compound having the structural formula (I) as above-defined, or a pharmaceutically acceptable salt thereof, in admixture with conventional pharmaceutically acceptable dileunt or carrier. Suitable such carriers and unit dosage amounts will be apparent to those skilled in this art. Compare, for example, Remington's Pharmaceutical Sciences, 4th Edition (1970). The LD50 of the alkanoylanilides according to the invention was determined in the mouse, both in C. S. Weil, following the method describedBiometrics, 8, 249 (1952). The results obtained were as follows, with the designating for the active compounds corresponding to those set forth in the following specific examples: […]

[2] = test system: passive cutaneous anaphylaxis; assay: PCA Test: passive cutaneous anaphylaxis induced in the rat with homologous antibodies (Goose and Blair); inhibition of spot areas; type: in vivo; details: read-out: PCA Test - ED50 (inhibition of spot areas)
Protocol: In order to evaluate the antianaphylactic activity of the subject novel compounds, the method of Goose and Blair was followed, in which passive cutaneous anaphylaxis was induced in the rat with homologous antibodies [Immunology, 16, 749 (1969)]. Female albino rats were immunized intramuscularly with egg albumin and intraperitoneally with Hemophylus pertussis vaccine.
Twelve days after treatment, the animals were bled and the sera thus obtained were injected intradermally into another group of rats. Twenty-four hours later, the animals were challenged with an i.v. solution of ovoalbumin and Evans blue dye, and sacrificed after 30 minutes. The test drugs were administered by different routes of administration and at different times before the challenge. Inhibition of spot areas (ED50) was determined.

[3] = test system: bronchospasm induced by histamine; assay: Antibronchospastic activity (Konzett and Rossler): inhibition of bronchospasm induced in anaesthetized guinea-pig by histamine; type: in vivo; details: Cavia porcellus, iv, 1 min, read-out: ED75 (inhibition of histamine-induced bronchospasm)
Protocol: The antibronchospastic activity was determined according to the method of Konzett and Rossler [Arch. exp. Path. Pharmakol., 195, 71 (1940)], determining the inhibition of bronchospasm induced in anaesthetized guinea-pig by histamine. For this purpose, the bronchospasms were induced by administering intravenously to the animals 0.5-2.5 μg/Kg of hystamine. Inhibition (ED75) was determined one minute after the injection of the drug under test, and the results obtained are reported in the following Table III: […]

[4] = anaesthetized guinea-pig, i.v., histamine 0.5-2.5 μg/Kg i.v., one minute after injection of the drug

Structure (SMILES) | LD50 ([1]; ip) | ED50 ([2]; Rattus norvegicus, ip) | LD50 ([1]; po, os) | ED75 [3] | ED50 ([2]; Rattus norvegicus, po) | ED75 [3, 4] | ED50 ([2]; po, rat, os) | ED50 ([2]; rat, ip)
Cc1cccc(C)c1NC(=O)CN1CCN(c2ccccn2)CC1 [compound 1] | 0.9 | 337 µmol/kg |  |  |  |  |  | 
Cc1cc(C)c(C)c(NC(=O)CN2CCN(c3ccccn3)CC2)c1C [compound 2] | 0.65 | 212 µmol/kg |  |  |  |  |  | 
COc1ccc(NC(=O)CCN2CCN(c3ccccn3)CC2)cc1 [compound 3] | 0.71 | 19 µmol/kg | 1.16 | 0.24 µmol/kg |  |  |  | 
O=C(CCN1CCN(c2ccccn2)CC1)Nc1cccc([N+](=O)[O-])c1 [compound 4] | 0.42 | 56 µmol/kg | 2.07 | 0.37 µmol/kg | 68 µmol/kg |  |  | 
CC(=O)c1ccc(OCc2ccccc2)c(NC(=O)CCN2CCN(c3ccccn3)CC2)c1 [compound 5] | 0.91 | 89 µmol/kg | 1.21 | 3.89 µmol/kg |  |  |  | 
O=C(CCN1CCN(c2ccccn2)CC1)Nc1ccc([N+](=O)[O-])cc1 [compound 6] | 0.47 | 27 µmol/kg | 0.81 | 0.94 µmol/kg |  |  |  | 
Nc1ccc(NC(=O)CCN2CCN(c3ccccn3)CC2)cc1 [compound 7] | 1.11 | 27 µmol/kg | 1.29 | 0.02 µmol/kg | 74 µmol/kg |  |  | 
O=C(CCN1CCN(c2ccccn2)CC1)Nc1ccc(NC(=O)Nc2ccccc2)cc1 [compound 8] | > 2.25 |  | > 6.7 |  |  |  |  | 
CCC(=O)Nc1ccc(NC(=O)CCN2CCN(c3ccccn3)CC2)cc1 [compound 11] | 1.05 | 160 µmol/kg | 1.53 | 0.23 µmol/kg |  |  |  | 
CCOC(=O)C(=O)Nc1ccc(NC(=O)CCN2CCN(c3ccccn3)CC2)cc1 [compound 12] | > 2.35 |  | > 7.05 |  |  | 0.23 µmol/kg | 180 µmol/kg | 130 µmol/kg
CC(=O)c1ccc(NC(=O)CCN2CCN(c3ccccn3)CC2)cc1 [compound 13] | 0.48 | 104 µmol/kg | 1.5 | 0.02 µmol/kg |  |  |  | 
CC(O)c1ccc(NC(=O)CCN2CCN(c3ccccn3)CC2)cc1 (stereo not shown) [compound 14] | 3.25 | 32 µmol/kg | 5.97 | 0.48 µmol/kg | 106 µmol/kg |  |  | 
Cc1cc(C)c(C)c(NC(=O)CCN2CCN(c3ccccn3)CC2)c1C [compound 15] | 0.57 | 19 µmol/kg |  | 1.56 µmol/kg | 26 µmol/kg |  |  | 
O=C(CCN1CCN(c2ccccn2)CC1)Nc1ccccc1 [compound 16] | 1.16 | 64 µmol/kg | 1.35 | 1.93 µmol/kg | 61 µmol/kg |  |  | 
Cc1ccccc1NC(=O)CCN1CCN(c2ccccn2)CC1 [compound 17] | 1.01 |  | 1.58 | 0.47 µmol/kg | 67 µmol/kg |  |  | 
Cc1cccc(C)c1NC(=O)CCN1CCN(c2ccccn2)CC1 [compound 18] | 0.8 | 81 µmol/kg |  | 1.57 µmol/kg | 13 µmol/kg |  |  | 
CCOc1ccc(NC(=O)CCN2CCN(c3ccccn3)CC2)cc1 [compound 19] | 0.69 |  | 0.92 | 0.14 µmol/kg | 54 µmol/kg |  |  | 
O=C(CCN1CCN(c2ccccn2)CC1)Nc1ccc(O)cc1 [compound 20] | > 2.5 |  | 5.2 |  |  | 0.49 µmol/kg | 170 µmol/kg | 120 µmol/kg
O=C(CCN1CCN(c2ccccn2)CC1)Nc1ccc(O)c([N+](=O)[O-])c1 [compound 21] | 2.38 | 270 µmol/kg | 3.74 | 1.1 µmol/kg | 160 µmol/kg |  |  | 
Nc1ccccc1NC(=O)CCN1CCN(c2ccccn2)CC1 [compound 22] | 3.2 |  | 2.08 | 1.63 µmol/kg | 100 µmol/kg |  |  | 

Structure (SMILES) | LD50 ([1]; ip) | ED50 ([2]; Rattus norvegicus, ip) | LD50 ([1]; po, os) | ED75 [3] | ED50 ([2]; Rattus norvegicus, po) | ED75 [3, 4] | ED50 ([2]; po, rat, os) | ED50 ([2]; rat, ip)
Nc1cccc(NC(=O)CCN2CCN(c3ccccn3)CC2)c1 [compound 23] | 0.9 |  | 0.85 | 0.61 µmol/kg | 170 µmol/kg |  |  | 
CC1CN(c2ccccn2)CCN1CCC(=O)Nc1ccc(N)cc1 (stereo not shown) [compound 24] | 1.18 |  | 2.97 | 0.59 µmol/kg | 39 µmol/kg |  |  | 
COc1cccc(N2CCN(CCC(=O)Nc3ccc(N)cc3)CC2)n1 [compound 25] | 0.53 | 110 µmol/kg | 1.6 | 0.4 µmol/kg | 55 µmol/kg |  |  | 
CC(=O)Nc1ccc(NC(=O)CCN2CCN(c3ccccn3)CC2)cc1 [compound 27] |  |  | > 6.81 |  |  | 0.97 µmol/kg | 92 µmol/kg | 120 µmol/kg
CNC(=O)Nc1ccc(NC(=O)CCN2CCN(c3ccccn3)CC2)cc1 [compound 28] | > 2.15 |  | > 6.5 |  |  | 0.29 µmol/kg | 73 µmol/kg | 
O=C(CCN1CCN(c2ccccn2)CC1)Nc1ccccc1[N+](=O)[O-] [compound 29] | 2.08 |  | 3.7 | 0.58 µmol/kg |  |  |  | 
CC1CN(c2ccccn2)CCN1CCC(=O)Nc1ccc([N+](=O)[O-])cc1 (stereo not shown) [compound 30] | 0.42 |  | 1.2 | 1.75 µmol/kg | 230 µmol/kg |  |  | 
COc1cccc(N2CCN(CCC(=O)Nc3ccc([N+](=O)[O-])cc3)CC2)n1 [compound 31] |  |  | 4.39 |  | 130 µmol/kg |  |  | 
O=C(CCN1CCN(c2ccccn2)CC1)Nc1cc([N+](=O)[O-])cc([N+](=O)[O-])c1 [compound 32] |  |  | 1.57 | 2.4 µmol/kg |  |  |  | 
O=C(CCN1CCN(c2ccccn2)CC1)Nc1ccccc1Cl [compound 33] | 1.29 | 151 µmol/kg | 2.64 | 1.12 µmol/kg | 47 µmol/kg |  |  | 
COc1cccc(N2CCN(CCC(=O)Nc3ccccc3[N+](=O)[O-])CC2)n1 [compound 34] |  |  | > 7.1 |  |  |  |  | 
O=C(CCN1CCN(c2ccccn2)CC1)Nc1ccc(Cl)cc1 [compound 35] | 0.62 |  | 0.96 | 2.27 µmol/kg | 39 µmol/kg |  |  | 
O=C(CCN1CCN(c2ccccn2)CC1)Nc1c(Cl)cccc1Cl [compound 36] | 0.8 |  | 1.24 | 0.4 µmol/kg | 29 µmol/kg |  |  | 
O=C(CCN1CCN(c2ccccn2)CC1)Nc1cccc(C(F)(F)F)c1 [compound 37] | 0.56 |  | 1.17 |  |  |  |  | 
COc1cccc(N2CCN(CCC(=O)Nc3ccccc3N)CC2)n1 [compound 38] | 0.37 |  | 0.67 |  | 44 µmol/kg |  |  | 
CC(=O)c1ccccc1NC(=O)CCN1CCN(c2ccccn2)CC1 [compound 39] | 2.3 |  | > 6.91 | 0.89 µmol/kg | 73 µmol/kg |  |  | 
CC(=O)c1cccc(NC(=O)CCN2CCN(c3ccccn3)CC2)c1 [compound 40] | 0.68 |  | 1.11 | 0.2 µmol/kg | 73 µmol/kg |  |  | 
CCOC(=O)c1ccc(NC(=O)CCN2CCN(c3ccccn3)CC2)cc1 [compound 41] | 0.66 | 220 µmol/kg | 0.92 | 0.17 µmol/kg | 28 µmol/kg |  |  | 
CSc1ccc(NC(=O)CCN2CCN(c3ccccn3)CC2)cc1 [compound 42] |  |  | > 8.4 |  |  |  |  | 
N#Cc1ccc(NC(=O)CCN2CCN(c3ccccn3)CC2)cc1 [compound 43] | 0.39 |  | 0.62 |  |  |  |  | 
